# Measured values as given in paper PMC8781960, “Structural Basis of 2-Phenylamino-4-phenoxyquinoline Derivatives as Potent HIV-1 Non-Nucleoside Reverse Transcriptase Inhibitors” (Molecules, 2022).
# Marks after values point to notes of the source that are not given here.
# Key:
# [1] = system: MRC-5 (normal embryonic lung cell); assay: In vitro cytotoxicity (MTT), normal cell line
# In short: (§1)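 Following two days of treatment across a concentration series, MTT was applied; sonication in dimethyl sulfoxide dissolved the formazan, and plates were read at a test wavelength of 550 nm using 650 nm as reference.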
# [2] = system: MOLT-3 (acute lymphoblastic leukemia); assay: In vitro cytotoxicity (XTT); conditions: Homo sapiens, MOLT-3, 48 h, read-out: IC50 MOLT-3
# HL-60 (promyeloblast) = assay: In vitro cytotoxicity (MTT); conditions: Homo sapiens, HL-60, 48 h, read-out: IC50 HL-60
# In short: as §1
# [3] = system: MDA-MB-231 (hormone-independent breast cancer); assay: In vitro cytotoxicity (MTT)
# In short: as §1
# A549 (lung carcinoma) = assay: In vitro cytotoxicity (MTT)
# In short: as §1
# [4] = system: HeLA (cervical carcinoma); assay: In vitro cytotoxicity (MTT); conditions: Homo sapiens, HeLa, 48 h, read-out: IC50 HeLA
# In short: as §1
# HepG2 (hepatocarcinoma) = assay: In vitro cytotoxicity (MTT)
# In short: as §1
# [5] = system: HuCCA-1 (cholangiocarcinoma); assay: In vitro cytotoxicity (MTT)
# In short: as §1
# S102 (Thai liver cancer) = assay: In vitro cytotoxicity (MTT)
# In short: as §1
# [6] = system: T47-D (hormone-dependent breast cancer); assay: In vitro cytotoxicity (MTT)
# In short: as §1
# [7] = system: H69AR (lung cancer, multidrug resistant); assay: In vitro cytotoxicity (MTT); type: cell-based, human; conditions: 48 h
# Description: Background control wells contained the same volume as the complete culture medium. […] The reagent was dissolved in phosphate-buffered saline at 5 mg/mL and filtered to sterilize and remove the small amount of insoluble residue present in some batches of MTT. […] Subsequently, dimethyl sulfoxide (100 µL; Merck, Germany) was added to dissolve the resulting formazan by sonication. The plates were read on a microplate reader (Molecular Devices, CA, USA) using a test wavelength of 550 nm and a reference wavelength of 650 nm.
# HIV-1 RT = target: T1, HIV-1 RT (Human immunodeficiency virus type 1 group M subtype B, UniProt P03366); parameters: method as in PMID 31698495; conditions: 1 µM; previously reported values for 5a–5d; cited from earlier work
# T1 construct: The reaction mixture consisted of template/primer complex, 2′-deoxy-nucleotide-5′-triphosphates (dNTPs), and RT enzyme in lysis buffer; purchased Roche Applied Science, Mannheim, Germany
# [8] = at 50 µg/mL, inactive (IC50 ≥ 50 µg/mL)
structure (smiles),measurement,setting,value
"Cc1cc(C=O)cc(C)c1Oc1cc(Nc2ccc(C#N)cc2)nc2ccccc12 [Compound 5b, 4-(2′,6′-Dimethyl-4′-formylphenoxy)-2-(4″-cyanophenyl)-aminoquinoline]",IC50,"[1]; Homo sapiens, MRC5, 48 h, read-out: IC50 MRC-5",69.8 ± 4.3 µM
same,melting point,,291.3 to 292.2 °C
same,IC50,[2],11.8 ± 1.6 µM
same,IC50,HL-60 (promyeloblast),4.5 ± 0.2 µM
same,IC50,"[3]; Homo sapiens, MDA-MB-231, 48 h, read-out: IC50 MDA-MB-231",15.9 ± 0.4 µM
same,IC50,"A549 (lung carcinoma); Homo sapiens, A549, 48 h, read-out: IC50 A549",51.2 ± 3 µM
same,IC50,[4],3.9 ± 0.6 µM
same,IC50,"HepG2 (hepatocarcinoma); Homo sapiens, HepG2, 48 h, read-out: IC50 HepG2",65.9 ± 6.1 µM
same,IC50,"[5]; Homo sapiens, HuCC-A1, 48 h, read-out: IC50 HuCCA-1",29.4 ± 2 µM
same,IC50,"S102 (Thai liver cancer); Homo sapiens, 48 h, read-out: IC50 S102",74 ± 5.3 µM
same,IC50,"[6]; Homo sapiens, T47D, 48 h, read-out: IC50 T47-D",22.9 ± 0.9 µM
same,IC50,"[7]; Homo sapiens, H69AR, mean ± standard error",27.6 ± 3.4 µM
same,Inhibitory activities (%) against HIV-1 RT,HIV-1 RT,34.0 ± 2.5%
"Cc1cc(C#N)cc(C)c1Oc1cc(Nc2ccc(C#N)cc2)nc2ccccc12 [Compound 5d, 4-(2′,6′-Dimethyl-4′-cyanophenoxy)-2-(4″-cyanophenyl)-aminoquinoline]",%C percentage cytotoxicity MRC-5,"[1]; normal cell line, at 50 µg/mL, inactive (IC50 ≥ 50 µg/mL)",%C = 7.4 ^c
same,melting point,,256.5 to 257 °C
same,IC50,[2],48.8 ± 41 µM
same,IC50,HL-60 (promyeloblast),33.4 ± 1.7 µM
same,%C percentage cytotoxicity MDA-MB-231,[3]; [8],%C = 14.9 ^c
same,%C percentage cytotoxicity A549,A549 (lung carcinoma); [8],%C = 21.0 ^c
same,IC50,[4],83.4 ± 5.7 µM
same,%C percentage cytotoxicity HepG2,HepG2 (hepatocarcinoma); [8],%C = 38.2 ^c
same,%C percentage cytotoxicity HuCCA-1,[5]; [8],%C = 3.0 ^c
same,%C percentage cytotoxicity S102,S102 (Thai liver cancer); [8],%C = 0.0 ^c
same,%C percentage cytotoxicity T47-D,[6]; [8],%C = 24.0 ^c
same,%C percentage cytotoxicity H69AR,"[7]; human, 50 µg/mL",%C = 0.0 ^c
same,Inhibitory activities (%) against HIV-1 RT,HIV-1 RT,27.8 ± 3.1%
